Assay results reported in patent US20250177558A1, “Functionalized Nanoclusters and Their Use in Treating Bacterial Infections” (priority 2022, published 2025).
Entries after “also recorded” stand apart in the source; their conditions may differ. Read-outs that look alike come from different tables or passages of the source.

How the values were obtained:
[1] = system: Ofloxacin-induced persister cells of P. aeruginosa (PA14); assay: Bactericidal activity against persister cells; type: cell-based, Pseudomonas aeruginosa; settings: ATP up to 10 mM, persister cells 10^8 CFU/ml
Description: Therefore, the 48-h-old-stationary phase was treated with Ofloxacin for 24 h to eradicate non-persister cells (FIG. 5A). Ofloxacin was used at 415 µM, corresponding to 30-fold the MIC for the PAO1 wild-type strain. The surviving persister cells were concentrated and redispersed in phosphate-buffered saline (PBS) to prevent persister cells from awakening from their metabolically repressed state.
Persister cells of the P. aeruginosa (PA14) were isolated by treating 250 ml of stationary phase cultures with Ofloxacin (415 µM final concentration). After 24 h treatment, the samples were washed with PBS, and then persister cells were concentred in 10 ml of PBS. The number of persister cells was estimated by serially diluting to determine the colony-forming unit per millilitre (CFU/ml).
All the bactericidal tests were performed on PBS without a carbon source to prevent persister cells from waking up from their low metabolic activity. Ofloxacin-induced persister cells were challenged with antimicrobial agents at the concentrations listed in the text. After the survival bacteria were washed 3× with PBS, the pellet was resuspended in 100 μL of PBS and then spread on an LB plate. The plate was incubated for 72 h at 37° C. before assessing growth.

PAO1Cip21 = assay: Disc diffusion susceptibility (cross-resistance); type: cell-based, Pseudomonas aeruginosa; settings: isolate after 21 passages in subinhibitory Ciprofloxacin; 5 μg discs
Description: In brief, glycerol stocks of each bacteria were streaked on LB plates and grown overnight at 37° C. An inoculum was prepared by diluting several individual colonies in PBS with a 0.5 McFarland Standard turbidity. The inoculum was then spread with sterile cotton swabs on Mueller Hinton agar plates supplemented with 5% sheep blood. Discs containing 5 μg of antipseudomonal drugs were dispensed on the surface of the plate. After 24 h incubation at 37° C., the inhibition zone was measured using a digital calliper.

[2] = system: Acinetobacter baumannii (A. baumannii); settings: ref [69], cited from earlier work
P. aeruginosa (PAO1) = type: cell-based, Pseudomonas aeruginosa; settings: 21 passages in sub-MIC dosing; MIC at passage n/initial MIC
Description: The fold change in minimum inhibitory concentration (MIC) was measured as the ratio between the MIC at passage n/initial MIC.
To test this idea, we repeated our serial passaging study with two biologically independent cultures of PAO1.
Serial passage MICs were performed in 96-well microtiter panels. First, an aliquot of the well with the highest concentration permitting growth was taken and back diluted ( 1/100) in new media from inoculated microtiter panels. […] Panels were incubated according to CLSI guidelines, MICs were recorded, and the next inoculum was prepared from the well containing the highest drug concentration that identically allowed growth as described above. Twenty-one repeat passages were performed.

[3] = system: stationary phase culture of P. aeruginosa (PA14); assay: Intracellular reactive oxygen species (DCFH-DA); type: cell-based, Pseudomonas aeruginosa; settings: relative to PBS-treated group
Description: FIGS. 12A-12B. […] (FIG. 12A) Schematic showing how intracellular ROS was determined using the fluorescent probe 2′,7′-dichlorofluorescein diacetate (DCFH-DA).
Cumulatively, the data in this section support that after transiting through OM, AuNC@ATP leads to the fusion of the inner leaflet of OM with the outer leaflet of the cytoplasmic membrane, which leads to bacteria death without cell lysis.
DCFH-DA (2′,7′-dichlorofluorescein diacetate) dye was applied to test the intracellular ROS concentration, which could be cleaved by the intracellular non-specific esterase into the DCFH. DCFH, in the presence of ROS, would be further oxidized into fluorescent DCF (2′,7′-dichlorofluorescein). DCFH-DA in DMSO (10 μM) was added to the treated bacterial solution and further incubated at 37° C., 200 rpm for 15 min. After that, the bacterial cells were centrifuged at 8000 g for 5 min, washed three times with PBS, and resuspended in ultrapure water to the original volume (1 mL). The microplate reader was used to measure the concentration of the produced DCF at the excitation/emission wavelength of 488/525 nm. In this experiment, the fluorescence intensity of DCF directly reflects the amount of ROS generation. […] Finally, the relative ROS production level was calculated by normalizing the ROS level from the treated groups with the production level of the PBS-treated group.

[4] = system: stationary phase culture of gram-negative bacteria; settings: conventional antibiotics, refs [54-56]; cited from earlier work
[5] = single injection, mice, ref [79], cited from earlier work

Nc1ncnc2c1ncn2[C@@H]1O[C@H](COP(=O)(O)OP(=O)(O)OP(=O)(O)O)[C@@H](O)[C@H]1O [ATP, adenosine triphosphate]
eradication of persister cells by ATP ligand alone [1]: No eradication was observed; also recorded: did not show bactericidal activity

NCC[C@H](O)C(=O)N[C@@H]1C[C@H](N)[C@@H](O[C@H]2O[C@H](CN)[C@@H](O)[C@H](O)[C@H]2O)[C@H](O)[C@H]1O[C@H]1O[C@H](CO)[C@@H](O)[C@H](N)[C@H]1O [Amikacin]
inhibition zone diameter compared to the ancestor PAO1 (PAO1Cip21): decrease in inhibition zone diameter | persister cells formed by A. baumannii in the presence of antibiotic [2]: 0.07%

CO/N=C(\C(=O)N[C@@H]1C(=O)N2C(C(=O)[O-])=C(C[N+]3(C)CCCC3)CS[C@H]12)c1csc(N)n1 [Cefepime]
inhibition zone diameter compared to the ancestor PAO1 (PAO1Cip21): decrease in inhibition zone diameter

CC(C)(O/N=C(\C(=O)N[C@@H]1C(=O)N2C(C(=O)[O-])=C(C[n+]3ccccc3)CS[C@H]12)c1csc(N)n1)C(=O)O [Ceftazidime]
inhibition zone diameter compared to the ancestor PAO1 (PAO1Cip21): decrease in inhibition zone diameter

O=C(O)c1cn(C2CC2)c2cc(N3CCNCC3)c(F)cc2c1=O [Ciprofloxacin]
resistance development: increase in MIC (P. aeruginosa (PAO1)): more than 250 fold

C[C@@H](O)[C@H]1C(=O)N2C(C(=O)O)=C(S[C@@H]3CN[C@H](C(=O)N(C)C)C3)[C@H](C)[C@H]12 [Meropenem]
inhibition zone diameter compared to the ancestor PAO1 (PAO1Cip21): decrease in inhibition zone diameter

CC1COc2c(N3CCN(C)CC3)c(F)cc3c(=O)c(C(=O)O)cn1c23 (centres unmarked) [Ofloxacin]
ROS production [3]: 1.2 fold-change | resistance development: increase in MIC (P. aeruginosa (PAO1)): > 1500 fold

Cn1c2cccc(=O)c-2nc2ccccc21 [PYO, pyocyanin]
increase of persister cells in the presence of PYO ([2]; with amikacin): 4 fold | increase of persister cells in the presence of PYO ([2]; with carbenicillin): 3 fold

NC[C@H]1O[C@H](O[C@H]2[C@H](O)[C@@H](O[C@H]3O[C@H](CO)[C@@H](O)[C@H](N)[C@H]3O)[C@H](N)C[C@@H]2N)[C@H](N)C[C@@H]1O [Tobramycin]
resistance development: increase in MIC (P. aeruginosa (PAO1)): more than 30 fold | inhibition zone diameter compared to the ancestor PAO1 (PAO1Cip21): decrease in inhibition zone diameter

C[C@H]1[C@H](NC(=O)/C(=N\OC(C)(C)C(=O)O)c2csc(N)n2)C(=O)N1S(=O)(=O)O [aztreonam]
inhibition zone diameter compared to the ancestor PAO1 (PAO1Cip21): decrease in inhibition zone diameter

CC1(C)S[C@@H]2[C@H](NC(=O)C(C(=O)O)c3ccccc3)C(=O)N2[C@H]1C(=O)O (some centres unmarked) [carbenicillin]
persister cells formed by A. baumannii in the presence of antibiotic [2]: 0.02%

Colistin
inhibition zone diameter compared to the ancestor PAO1 (PAO1Cip21): decrease in inhibition zone diameter | cell lysis [4]: cause bacteria cell lysis

Polymyxin-B
inhibition zone diameter compared to the ancestor PAO1 (PAO1Cip21): decrease in inhibition zone diameter

tobramycin sulphate
LD50 ([5]; IP): 262 mg/kg | LD50 ([5]; IV): 77 mg/kg
